Key:
Type in all cases: in vivo
Design in all cases: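 grade 0 to 5 of growth suppression where 5 is 90% or more and 0 below 10%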
[1] = tested on: Scirpus juncoides Roxb. var. ohwianus. T. Koyama; test: Herbicidal effects in paddy field soil treatment (Test Example 1); conditions: paddy field soil treatment; 1000 g of the active ingredient per hectare; wettable powder added dropwise on water surface; 21st day after treatment
Method: (§1) Test for Herbicidal Effects in Paddy Field Soil Treatment
(§2) A 100-cm^2 plastic pot was filled with paddy field soil. After puddling and leveling, seeds of Echinochloa oryzicola Vasing, Monochoria vaginalis (Burm. f.) Presl var. plantaginea (Roxb.) Solms-Laub., and Scirpus juncoides Roxb. var. ohwianus. T. Koyama were sowed, and the soil was waterlogged to a water depth of 3 cm. On the next day, a wettable powder formulation prepared according to Preparation Example 1 was diluted with water, and was added dropwise on the water surface. The amount of application was an amount equivalent to 1000 g of the active ingredient per hectare. Thereafter, the plants were grown in a greenhouse, and on the 21st day after the treatment, the herbicidal effects were investigated according to the criteria described in Table 138.

[2] = tested on: Echinochloa oryzicola Vasing; test: as above; conditions: paddy field soil treatment; 1000 g of the active ingredient per hectare; wettable powder added dropwise on water surface; 21st day after treatment
Method: as §1, §2

[3] = tested on: Monochoria vaginalis (Burm. f.) Presl var. plantaginea (Roxb.) Solms-Laub.; test: as above; conditions: paddy field soil treatment; 1000 g of the active ingredient per hectare; wettable powder added dropwise on water surface; 21st day after treatment
Method: as §1, §2

[4] = tested on: Abutilon theophrasti medicus; test: Herbicidal effects in upland field soil treatment (Test Example 2); conditions: 1000 g active ingredient per hectare, 21st day after treatment, criteria of Table 138
Method: (§3) Test Example 2 Test on Herbicidal Effects in Upland Field Soil Treatment A 80-cm^2 plastic pot was filled with upland field soil. Seeds of Abutilon theophrasti medicus and Amaranthus viridis L. were sowed, and soil was covered. A wettable powder formulation prepared according to Preparation Example 1 was diluted with water, and was uniformly sprayed on the soil surface with a small sprayer, in an amount equivalent to 1000 liters per hectare, such that 1000 g of the active ingredient per hectare was applied. Thereafter, the plants were grown in a greenhouse, and on the 21st day after the treatment, the herbicidal effects were investigated according to the criteria described in the Table 138 shown above.

[5] = tested on: Amaranthus viridis L.; test: as above; conditions: 1000 g active ingredient per hectare, 21st day after treatment, criteria of Table 138
Method: as §3

Structure (SMILES) | Herbicidal effects index, Scirpus juncoides Roxb. var. ohwianus. T. Koyama [1] | Herbicidal effects index, Echinochloa oryzicola Vasing [2] | Herbicidal effects index, Monochoria vaginalis (Burm. f.) Presl var. plantaginea (Roxb.) Solms-Laub. [3] | herbicidal effect (index) on Abutilon theophrasti medicus [4] | herbicidal effect (index) on Amaranthus viridis L. [5]
COc1cccc(Cn2c(=O)c(C(=O)C3=C(O)CCCC3=O)nc3ccccc32)c1 [I-125] | 5 | 4 | 5 |  | 
O=C1CCCC(O)=C1C(=O)c1nc2cc(F)ccc2n(Cc2ccccc2)c1=O [I-280] | 5 | 5 | 5 |  | 
O=C1CCCC(O)=C1C(=O)c1nc2ccccc2n(COc2ccccc2)c1=O [I-57] | 5 | 4 | 5 | 4 | 5
COc1ccc(-n2c(=O)c(C(=O)C3=C(O)CCCC3=O)nc3c(F)cc(F)cc32)cc1 [II-259] | 5 | 4 | 5 | 5 | 5
CC(C(=O)OC(C)(C)C)n1c(=O)c(C(=O)C2=C(O)CCCC2=O)nc2cccnc21 (stereo not shown) [III-233] |  |  |  | 5 | 5
COc1ccc(-n2c(=O)c(C(=O)C3=C(O)CCCC3=O)nc3ccccc32)c(Cl)c1 [II-175] | 5 | 4 | 5 |  | 
COc1ccc(-n2c(=O)c(C(=O)C3=C(O)CCCC3=O)nc3c(Cl)cccc32)cn1 [I-379] | 5 | 5 | 5 | 5 | 5
COc1ccc(-n2c(=O)c(C(=O)C3=C(O)CCCC3=O)nc3cc(F)ccc32)cc1 [II-187] | 5 | 5 | 5 |  | 
CCn1c(=O)c(C(=O)C2=C(O)CCCC2=O)nc2c(Cl)cccc21 [I-363] | 5 | 5 | 5 | 5 | 5
O=C1CCCC(O)=C1C(=O)c1nc2cc(F)ccc2n(-c2ccc3c(c2)OCCO3)c1=O [II-240] | 5 | 4 | 5 | 5 | 5
COc1ccc2c(c1)nc(C(=O)C1=C(O)CCCC1=O)c(=O)n2-c1ccccc1 [II-250] |  |  |  | 5 | 5
COc1ccc(-n2c(=O)c(C(=O)C3=C(O)CCCC3=O)nc3c(F)c(F)c(OC)c(F)c32)cc1 [II-302] |  |  |  | 4 | 5
Cc1ccc(-n2c(=O)c(C(=O)C3=C(O)CCCC3=O)nc3ccccc32)nc1 [I-178] | 5 | 4 | 5 | 5 | 5
CS(=O)(=O)Cn1c(=O)c(C(=O)C2=C(O)CCCC2=O)nc2ccccc21 [I-80] |  |  |  | 5 | 5
COc1ccc(-n2c(=O)c(C(=O)C3=C(O)CCCC3=O)nc3cc(C)ccc32)cc1 [II-246] | 5 | 4 | 5 |  | 
COc1ccc(-n2c(=O)c(C(=O)C3=C(O)CCCC3=O)nc3cc(Cl)ccc32)cc1 [II-195] | 5 | 5 | 5 |  | 
O=C1CCCC(O)=C1C(=O)c1nc2ccccc2n(C2CCSCC2)c1=O [I-166] | 5 | 4 | 5 |  | 

Structure (SMILES) | Herbicidal effects index, Scirpus juncoides Roxb. var. ohwianus. T. Koyama [1] | Herbicidal effects index, Echinochloa oryzicola Vasing [2] | Herbicidal effects index, Monochoria vaginalis (Burm. f.) Presl var. plantaginea (Roxb.) Solms-Laub. [3] | herbicidal effect (index) on Abutilon theophrasti medicus [4] | herbicidal effect (index) on Amaranthus viridis L. [5]
Cn1ccc2cc(-n3c(=O)c(C(=O)C4=C(O)CCCC4=O)nc4ccccc43)ccc21 [I-276] | 5 | 5 | 5 |  | 
COc1c(F)cc(-n2c(=O)c(C(=O)C3=C(O)CCCC3=O)nc3ccc(C)cc32)cc1F [II-248] | 5 | 5 | 5 |  | 
CCNc1nc(NC(C)C)nc(-n2c(=O)c(C(=O)C3=C(O)CCCC3=O)nc3ccccc32)n1 [I-274] | 4 | 5 | 5 |  | 
CC(C)(C)n1c(=O)c(C(=O)C2=C(O)CCCC2=O)nc2ccccc21 [I-18] |  |  |  | 5 | 5
COc1ccc(-n2c(=O)c(C(=O)C3=C(O)CCCC3=O)nc3c(F)c(F)ccc32)cc1 [II-258] | 5 | 4 | 5 |  | 
COc1ccc(-n2c(=O)c(C(=O)C3=C(O)CCCC3=O)nc3c(Cl)cc(Cl)cc32)cc1 [II-262] |  |  |  | 4 | 5
O=C1CCCC(O)=C1C(=O)c1nc2ccccc2n(Cc2ccc(Cl)cc2)c1=O [I-113] | 5 | 5 | 5 |  | 
COC(=O)c1ccc(-n2c(=O)c(C(=O)C3=C(O)CCCC3=O)nc3ccccc32)cc1 [II-146] |  |  |  | 4 | 5
COc1ccc(-n2c(=O)c(C(=O)C3=C(O)CCCC3=O)nc3ccccc32)c(OC)c1 [II-177] | 5 | 4 | 5 |  | 
CC(=O)c1ccc(-n2c(=O)c(C(=O)C3=C(O)CCCC3=O)nc3ccccc32)cc1 [II-140] | 4 | 5 | 5 |  | 
COc1ccc(-n2c(=O)c(C(=O)C3=C(O)CCCC3=O)nc3ccc(OC)cc32)cc1 [II-253] | 5 | 5 | 5 |  | 
COc1ccccc1Cn1c(=O)c(C(=O)C2=C(O)CCCC2=O)nc2ccccc21 [I-120] | 5 | 4 | 5 |  | 
COc1ccc(Cn2c(=O)c(C(=O)C3=C(O)CCCC3=O)nc3ccccc32)cc1 [I-126] | 5 | 4 | 5 |  | 
O=C1CCCC(O)=C1C(=O)c1nc2ccccc2n(-c2ccc(OCC(F)(F)F)cc2)c1=O [II-209] | 5 | 5 | 5 |  | 
Cn1c(=S)c(C(=O)C2=C(O)CCCC2=O)nc2ccccc21 [I-256, 3-hydroxy-2-(1-methyl-2-thioxo-1,2-dihydroquinoxalin-3-yl-carbonyl)-2-cyclohexen-1-one] |  |  |  | 5 | 5
COc1ccc(-n2c(=O)c(C(=O)C3=C(O)CCCC3=O)nc3ccccc32)cc1Cl [II-179] | 5 | 4 | 5 |  | 
COc1ccc(-n2c(=O)c(C(=O)C3=C(O)CCCC3=O)nc3ccccc32)cc1OC [II-169] | 5 | 5 | 5 |  | 

Source: patent publication US8389523B2, “Substituted quinoxaline and an agrochemical composition thereof” (Kumiai Chemical Industry Co., Ltd., priority 2007, dated 2013)
